≈ marks a conversion by molar mass, not a printed value. Where two headings read alike, the source gives them in different places.
Tests used:
[1] = tested on: Septoria tritici MUCL45408; assay: Minimum inhibitory concentration (MIC), S. tritici (ATP quantification); type: cell-based; details: Zymoseptoria tritici, read-out: MIC St
Experimental: (§1) The minimum inhibitory concentration (MIC) of the synthesized compounds was initially determined against three microbial indicator strains (Escherichia coli ATCC35218, […] ATCC33592, Septoria tritici MUCL45408). […]
(§2) 2. Microbial and parasitological studies
(§3) The minimum inhibitory concentration (MIC) of the synthesized compounds was determined against three microbial indicator strains (E. coli ATCC35218, S. aureus ATCC33592 and S. tritici MUCL45408) as previously described.1,2 All samples were dissolved in DMSO and tested in triplicate. Briefly, a pre-culture of E. coli and S. aureus was prepared by incubating the strains in cation adjusted Mueller Hinton 2 broth (Becton Dickinson, Sparks, NV, USA) at 37°C and 180 rpm overnight. The cell density of adjusted to 5 × 10^5 cells/mL before assays were incubated at 37 °C, 180 rpm and 85% rH. Three distinct dilution series of standard antibiotics (gentamicin, rifampicin, and tetracycline) were used as positive controls on each assay plate. Inoculated medium without test compound or positive control was used as negative control.
Medium background was averaged from 5 replicates. The turbidity of each well was measured with a microplate spectrophotometer at 600 nm (LUMIstar® Omega, BMG Labtech) and growth inhibition was calculated relative to the absorption of the controls. For S. tritici MUCL45408 inoculated at a density of 1 × 10^5 cells/mL in potato […]
dextrose medium. Septoria assay plates were incubated for 4 days at 25 °C, 180 rpm and 85% rH. Tebuconazole, amphotericin B, and nystatin were used as positive controls. Cell viability was evaluated via ATP quantification (BacTiter-Glo™, Promega GmbH, Walldorf, Germany) according to the manufacturer’s instructions. […]

C. elegans DC19 = assay: whole plant or invertebrate; type: cell-based, Caenorhabditis elegans; details: Caenorhabditis elegans, 48 h, read-out: MMIC DC19
Description: (§4) The cuticle of C. elegans strain DC19 is known to be more permeable for small molecules compared to the wildtype N2.[30] DC19 is thereby considered an informative drug-sensitive test organism. In our assays, we determined the minimum mobility inhibitory concentration (MMIC) as a proxy for anthelmintic activity. […] In contrast, MMICs of some small molecule anthelmintics such as albendazole, mebendazole or PF-1022A were lower for DC19 (Fig. S1 ^†). […]
(§5) 2.2 In vitro tests against Caenorhabditis Elegans
(§6) The minimal motility inhibitory concentration (MMIC) of compounds 1-22 against C. elegans was determined as described before.3 Both strains, C. elegans N2 and DC19 were treated identically. Briefly, pre-cultures of C.elegans were kept on NGM agar plates infused with auxotrophic E.coli OP50 as food source.4 After 4 days the plates contained sufficient gravid worms, respectively. Worms were washed from the plates with M9 buffer using wide bore pipette tips. Egg preparation was carried out by treating the harvested worms with an alkaline hypochlorite solution (5 M NaOH + 5 % NaOCl 1:2) in polypropylene tubes. Larvae and adult […]
(§7) We carried out 3 washing steps (M9 buffer) to remove carry-over hypochlorite solution. Subsequently, the eggs were incubated overnight in NGM broth on a rotator to yield synchronized hatched L1/L2 larvae. The larvae solution was adjusted to 100 worms/mL and supplemented with cholesterol (5 µg/mL), carbenicillin (25 µg/mL) and E.coli OP50 (0.5%). This assay solution was distributed into 96 well plates and incubated with a dilution series of compounds 1-22 (64-0.5 µg/mL). An additional eight-point dilution series of ivermecin (40 – 0.3 ng/mL) was used as positive control on each assay plate. Solvent background was controlled by supplementation of pure DMSO without any compound. Assays were incubated for 2 days at room temperature. Finally, a cell imaging multimode reader (Cytation™ 5) was used to record short videos (1.5 seconds) of each individual test well. The videos were used to evaluate the worm motility.

C. elegans N2 = assay: whole plant or invertebrate; type: cell-based, Caenorhabditis elegans; details: Caenorhabditis elegans, 48 h, read-out: MMIC N2
Description: as §4, §5, §6, §7

MDCK II cells = assay: In vitro cytotoxicity, CellTiter-Glo, MDCK II cells; details: 100 μM; for MDCKII cytotoxicity: 48 h, cell viability less than 80% relative to DMSO control = cytotoxic
S. aureus ATCC33592 = assay: microbe, parasite or virus in culture; type: cell-based; details: Staphylococcus aureus, ATCC33592, read-out: MIC Sa
Experimental: as §1, §2
as §3, with “and tetracycline) were used as positive controls on each assay plate. Inoculated medium without test compound or positive control was used as negative control.” left out
(§8) medium without test compound or positive control was used as negative control.
(§9) Medium background was averaged from 5 replicates. The turbidity of each well was […]

[2] = tested on: Escherichia coli ATCC35218; assay: microbe, parasite or virus in culture; type: cell-based; details: ATCC35218, read-out: MIC Ec
Experimental: as §1, §2
as §3, with “and tetracycline) were used as positive controls on each assay plate. Inoculated medium without test compound or positive control was used as negative control.” left out
as §8, §9

Schistosoma mansoni = assay: In vitro tests against Schistosoma mansoni (vitality parameters of adult worm pairs); type: cell-based; details: for activity against S. mansoni (100% effect strength in one parameter within 7 days = active): 10 or 20 μM; for motility score: score 3 normal motility to 0 dead, paragraph on 20 μM
Experimental: Subsequently, we tested whether compounds with nematocidal activity display a broader activity also against parasitic flatworms. To this end, in vitro tests against the blood fluke S. mansoni were conducted (Fig. 4). The worms were incubated in presence of 10 and 20 μM of compounds 1–22 and phenotypic vitality parameters (separation of worm pairs, detachment of suckers from the bottom of the well and weakening of body movements) were assessed as previously described.[31] Compounds reaching 100% effect strength in one of the parameters within 7 days were considered active. Reduction of motility is considered most relevant for antischistosomal drug candidates.[32] In addition, loss of sucker activity would make parasites drifting off from their host habitat (mesenteric veins) and with pair separation, the production of pathology-causing eggs eventually ceases.[33] […] For some molecular targets e.g. glutamate and GABA chloride channels (ivermecin, abamectin) and β-tubulin (albendazole, mebendazole) the C. elegans assays results were transferable to Schistosoma, while for others e.g. acetylcholin mimetic (levamisole) the C. elegans MMIC was not predicative (Fig. S1 ^†).
2.2 Parasitological studies
Animal experiments were performed in accordance with Directive 2010/63/EU on the protection of animals used for scientific purposes and the German Animal Welfare Act. The experiments were approved by the Regional Council (Regierungspraesidium) Giessen (V54 – […]
A Liberian strain of S. mansoni was maintained in the freshwater snail Biomphalaria glabrata as intermediate host and Syrian hamsters (Mesocricetus auratus) as final host (Janvier Labs, France).5,6 Hamsters were infected at 8 weeks of age with 1,750 cercariae by using the paddling method.7 Adult worms were collected at 46 days p.i. by hepatoportal perfusion and cultured in M199 medium (Sigma-Aldrich, Germany) supplemented with 10% Newborn Calf Serum (NCS, Sigma-Aldrich), 1% 1 M HEPES (ThermoFisher Scientific, USA) and 1% ABAM solution (10,000 units/ml penicillin, 10 mg/ml streptomycin and […] amphotericin B; Sigma-Aldrich, Germany) at 37 °C, 5% CO2 and humidified atmosphere.
2.2.3. In vitro tests against Schistosoma mansoni
Test compounds were added at 10 µM or 20 µM in supplemented M199 medium to schistosomes (5 worm pairs per replicate) followed by a 7 d in vitro culture. Worms receiving the solvent DMSO at equal dilution served as negative control. The following vitality parameters were assessed every 24 h by bright field microscopy using a Leica DM IL inverted microscope and x2.5 objective lens: separation of worm pairs into male and female worms; detachment of suckers from the bottom; and weakening of body movements. Worm motility was scored as described previously, 8 with the scores 3 (normal motility), 2 (reduced motility), 1 (minimal and sporadic movements), 0 (no movements within 20 sec; dead worms). An average score of all worms per well was calculated to obtain a motility score. An average motility score of 0, separation of all pairs or detachment of all worms per well was considered

[3] = tested on: C. elegans strains N2 and DC19; assay: MMIC against C. elegans, strains N2 and DC19 reported together or strain not stated; type: cell-based; details: Caenorhabditis elegans, 48 h
Description: as §4, §5, §6, §7

[4] = C. elegans, read-out: MMIC N2 and DC19
[5] = 96 h, S. tritici MUCL45408, 4 days

SMILES | MIC ([1]; MUCL45408, 96 h) [µg/mL] | minimal effective concentration (C. elegans DC19) [µg/mL] | minimal effective concentration (C. elegans N2) [µg/mL] | MDCKII cytotoxicity (MDCK II cells) | MIC (S. aureus ATCC33592) [µg/mL] | MIC [2] [µg/mL] | cytotoxicity against MDCK II (in words) (MDCK II cells) | activity against S. mansoni (100% effect strength in one parameter within 7 days = active) (Schistosoma mansoni) | motility score (Schistosoma mansoni) | minimal effective concentration (C. elegans N2; C. elegans N2, 2 days) [µg/mL] | minimal effective concentration [3, 4] [µg/mL] | phenotypic changes / vitality parameters of Schistosoma (Schistosoma mansoni; up to 20 μM, in comparison to the untreated control) | MIC [1, 5] [µg/mL] | minimal effective concentration (C. elegans DC19; C. elegans DC19, 2 days) [µg/mL] | sucker detachment of Schistosoma worm pairs (Schistosoma mansoni; 10 μM) | lethal effects (Schistosoma mansoni; 20 μM, after seven days) | sucker detachment (Schistosoma mansoni; 20 μM, after three days) | minimal effective concentration ([3]; read-out: MMIC N2 and DC19, C. elegans) [µg/mL]
CCCCN1CC(Cl)CC(C)(C)C1 (centres unmarked) [Compound 16] | > 64 | > 64 | > 64 | − (“−” (not toxic)) | > 64 | > 64 |  |  |  |  |  |  |  |  |  |  |  | 
CC1(C)CC(Cl)CN(Cc2cccc(CN3CC(Cl)CC(C)(C)C3)c2)C1 (centres unmarked) [Compound 1] | 64 (≈ 161 µM) |  | 64 | + (“+” (toxic)) | > 64 | > 64 | cytotoxic | Schistosoma-specific | 1–1.2 |  |  |  |  |  |  |  |  | 
CC1(C)CC(Cl)CN(Cc2ccccc2CN2CC(Cl)CC(C)(C)C2)C1 (centres unmarked) [Compound 8] |  |  |  |  | > 64 | > 64 |  |  |  | 8 | < 20 | did not inflict any phenotypic changes |  |  |  |  |  | 
Cl[C@H]1CCCN(Cc2ccccc2)C1 [Compound 19] |  |  |  | − (“−” (not toxic)) | > 64 | > 64 |  |  |  | > 64 |  |  | > 64 | > 64 |  |  |  | 
CC1(C)CC(Cl)CN(CCCC[C@@H](C(=O)OCCc2ccccc2)N2CC(Cl)CC(C)(C)C2)C1 (some centres unmarked) [Compound 12] |  |  |  |  | > 64 | > 64 |  | showed an effect on S. mansoni | 1–1.2 |  | < 20 |  | > 64 | 16 | full sucker detachment |  |  | 
CCCCN1CC(Cl)CC2(CC2)C1 (centres unmarked) [Compound 17] |  |  |  | − (“−” (not toxic)) | > 64 | > 64 |  |  |  | > 64 |  |  | > 64 | > 64 |  |  |  | 
Cl[C@@H]1CCCN(Cc2ccccc2)C1 [Compound 20] |  |  |  | − (“−” (not toxic)) | > 64 | > 64 |  |  |  | > 64 |  |  | > 64 | > 64 |  |  |  | 
CC1(C)CC(Cl)CN([C@H]2CC[C@H](N3CC(Cl)CC(C)(C)C3)CC2)C1 (some centres unmarked) [Compound 10] |  |  |  |  | > 64 | > 64 |  |  |  | > 64 | ≥ 64 |  | > 64 | > 64 |  |  |  | 
CN(C)c1cc(CN2CC(Cl)CC(C)(C)C2)cc(CN2CC(Cl)CC(C)(C)C2)c1 (centres unmarked) [Compound 3] | > 64 |  | 16 | + (“+” (toxic)) | > 64 | > 64 | cytotoxic | showed an effect on S. mansoni |  |  | < 20 |  |  |  |  | lethal effects | sucker detachment already after three days | 
CC1(C)CC(Cl)CN(Cc2ccccc2)C1 (centres unmarked) [Compound 18] | > 64 | 32 | > 64 | + (“+” (toxic)) | > 64 | > 64 |  |  |  |  |  |  |  |  |  |  |  | 
Cc1cc(CN2CC(Cl)CC(C)(C)C2)cc(CN2CC(Cl)CC(C)(C)C2)c1 (centres unmarked) [Compound 7] |  |  |  |  | > 64 | > 64 |  | showed an effect on S. mansoni |  |  | < 20 |  | > 64 | 16 |  |  |  | 
COc1cc(CN2CC(O)CC(C)(C)C2)cc(CN2CC(O)CC(C)(C)C2)c1 (centres unmarked) [Compound 22] |  |  |  | − (“−” (not toxic)) | > 64 | > 64 |  |  |  | > 64 |  |  | > 64 | > 64 |  |  |  | 
CC1(C)CC(Cl)CN(CCN2CC(Cl)CC(C)(C)C2)C1 (centres unmarked) [Compound 15] | > 64 | > 64 | > 64 | + (“+” (toxic)) | > 64 | > 64 |  |  |  |  |  |  |  |  |  |  |  | ≥ 64

— article PMC11718441, “Bis-3-chloropiperidines: a novel motif for anthelmintic drug design” (RSC Advances, 2025)
